Assay results taken from patent US9648880B2, “Antifungal agents and uses thereof” (University of Massachusetts, priority 2012, dated 2017).

Assays:
Assay type in all cases: cell-based, Candida albicans
SC5314 = test: growth rate in liquid culture; settings: 50 μM; liquid YPD, 30° C.
Description: FIGS. 8A-8B. Characterization of compound #4. FIG. 8A is a graphs showing the IC50 for compound #4 measured using GFP adhesion assay. Assay performed as in FIG. 1D with the indicated concentrations of compound #4. Mean and standard deviations from 4 replicate well measurements are shown. FIG. 8B is a graph showing the effect of compound #4 on growth rate of SC5314 in liquid culture. SC5314 was grown in liquid YPD in a 30° C. shaker in the presence of 1% DMSO or compounds #4, 5, 6, 7 or 8 at 50 μM and the OD600 of the culture was measured at the indicated times. Cultures were also observed in the microscope, and we confirmed that the cells retained the budding yeast morphology during the course of this experiment.
We performed several additional experiments to characterize the ability of compound #4 to inhibit Candida adhesion to polystyrene. […] Second, we tested whether compound #4 affects C. albicans cell growth rate. […] Therefore, compound #4 slows C. albicans growth but is minimally toxic to human epithelial cells (FIG. 2C), properties that are desirable for candidate antifungal compounds.
Overnight cultures of […] were diluted to 0.1 OD/ml in fresh YPD and grown in a 30° C. shaker at 200 RPM in the presence of […] of compounds or 1% DMSO. OD 600 nm was measured during the time course to evaluate growth rate.

[1] = tested on: fluconazole-resistant C. albicans strains; test: fluconazole synergy assay; settings: 24 hrs, 37° C.; alamarBlue without wash
Description: FIGS. 10A-10B. […] Candida strains were identified from AIDS patients (3919, an initial progenitor isolate, and the subsequently isolated 4617 and 4639 strains). These were coincubated in the presence of either compounds #4, #Q1, fluconazole alone or a combination of fluconazole with either #4 or #Q1 for 24 hrs in polystyrene plates at 37° C. Viability was assessed using alamarBlue reagent as described (Youngsaye, supra).
Finally, we tested whether compound #4 would inhibit growth of fluconazole-resistant C. albicans strains in the presence of low levels of fluconazole, because that is the activity described for compound Q1 (Youngsaye supra). To measure cell viability rather than adhesion, we performed alamarBlue-based viability measurements without wash steps, using fluconazole-resistant C. albicans strains obtained from an AIDS patient who had been treated with fluconazole for oral candidaisis (Bachmann, 2002).
Assays to test for synergies between compound #4 and fluconazole were performed as described (Youngsaye, 2011, supra), except we used a 96-well rather than a 384-well format. […] At the end of 24 hours of incubation, viability was evaluated without washing steps, using alamarBlue as previously described (Youngsaye, 2011, supra).

[2] = tested on: C. albicans constitutively filamentous strains; test: hyphal development induced by multiple signals (mutant strains, GlcNAc, hydroxyurea); set-up: genotoxic stress-induced filamentation: dose or concentration left out as unconfirmed
Description: FIGS. 30A-30E. Compound #4 inhibits hyphal development induced by multiple signals. FIG. 30A is a schematic diagram of some of the signaling pathways that govern hyphal gene expression. For simplicity, only those genes investigated in this figure are shown. FIG. 30B is a series of photomicrographs showing the effects of compound #4 on constitutively filamentous mutant strains in the cAMP-PKA pathway. Wild-type SC5314, efg1-T206E, ras1-G13V, and ADH1pr-gpa2-Q355L cells were grown in the presence of 1% DMSO or 50 μM compound #4 in Spider medium at 37° C. for 4 hrs, stained with Calcofluor white and photographed using DIC or fluorescent microscopy (20× objective). FIG. 30C is a series of two photomicrographs showing that Compound #4 blocks filamentation induced by GlcNAc or constitutive overexpression of the GlcNac-activated transcription factor Cph1. Images obtained as in FIG. 30B. […] SC5314 cells grown in YPD at 30° C. in the presence of 50 mM hydroxyurea (HU) in combination with either 1% DMSO or […]. Images obtained as in FIG. 30B. FIG. 30E is a series of photomicrographs showing that Compound #4 inhibits the hyperfilamentous growth of a strain that constitutively overexpresses the Gpr1 protein. Colonies were grown on solid Spider media agar overlayed with either 1% DMSO or 50 μM #4 and incubated at 37° C. for 3 days. Colony edges were imaged with a 10× objective.
To explore the mechanism of compound #4 action, we tested whether compound #4 would alter hyphal induction in mutants that hyperactivate the filamentation process. For example, hyphal induction by Spider media requires the cyclic AMP-protein kinase A (cAMP-PKA) pathway; FIG. 30A. Stimulation of this pathway drives PKA to phosphorylate transcription factor Efg1, activating Efg1 to increase expression of genes required for hyphal morphogenesis.
For example, the modified sugar N-acetyl-glucosamine (GlcNac) also stimulates hyphal morphogenesis, but does so independently of the cAMP-PKA pathway, instead activating the transcription factor Cph1.
In addition to nutrient-mediated signals, genotoxic stress promotes hyphal morphogenesis in C. albicans, and the DNA damage signaling kinase Rad53 is required for the hyphal transition.

Cc1ccc(C(=O)N2CCN(c3ccc([N+](=O)[O-])cc3)CC2)cc1Cl [Compound 4]
C. albicans cell growth rate (doubling time) (SC5314): reduced the doubling time | viability/growth of fluconazole-resistant strains, alone or with low fluconazole [1]: did not affect fluconazole-resistant C. albicans viability, whether alone or in the presence of fluconazole | hyphae driven by GlcNac-containing media or overexpression of Cph1 [2]: also inhibits formation of hyphae in these cases | morphology of hyperfilamentous cAMP-PKA pathway mutants (ras1-G13V, gpa2-Q355L, efg1-T206E) ([2]; 50 μM, Spider medium 37° C., 4 hrs): retained a planktonic, budded morphology | hyphal morphogenesis of cells overexpressing Gpr1 ([2]; 50 μM, solid Spider media, 37° C., 3 days): blocked hyphal morphogenesis in these cells | genotoxic stress-induced filamentation ([2]; YPD 30° C.): form hyphae regardless of the presence of compound #4
